Assay results published in ChEMBL document CHEMBL4602715, “Efficacy and Tolerability of Pyrazolo[1,5-a]pyrimidine RET Kinase Inhibitors for the Treatment of Lung Adenocarcinoma” (ACS Med Chem Lett, 2020).
Converted amounts (≈) assume the structure as drawn. The source made the active and inactive calls. The rule behind the calls is not given here.

Tests used:
Mus musculus [1] = experiment: In vivo inhibition of KIF5B/RET transfected in rat RIE cells xenografted in Harlan Foxn1 nude mouse assessed as reduction in RET phosphorylation at 30 mg/kg, po administered bid for 8 days and measured on day 8 after 5 hrs of dosing by Western blot analysis; format: functional, organism-based
[2] = Volume of distribution at steady state in BALB/c mouse at 5 mg/kg, iv measured upto 24 hrs by LC-MS/MS analysis; format: ADME, organism-based; conditions: in vivo, read-out: Vdss
[3] = Drug uptake in tumor of Harlan Foxn1 nude mouse xenografted with rat RIE cells transfected with KIF5B/RET at 3 to 30 mg/kg, po administered bid for 8 days by LC-MS/MS analysis; format: ADME, organism-based, Neoplasm; conditions: in vivo, 192 h
[4] = Drug uptake in plasma of Harlan Foxn1 nude mouse xenografted with rat RIE cells transfected with KIF5B/RET at 3 to 30 mg/kg, po administered bid for 8 days by LC-MS/MS analysis; format: ADME, organism-based; conditions: in vivo, 192 h
[5] = target: T1, Voltage-gated inwardly rectifying potassium channel KCNH2 (Homo sapiens, UniProt Q12809); experiment: Inhibition of human ERG expressed in human embryonic kidney cells by manual patch clamp assay; format: cell-based; conditions: read-out: IC50
[6] = Half life in BALB/c mouse at 5 mg/kg, iv measured upto 24 hrs by LC-MS/MS analysis; format: ADME, organism-based; conditions: in vivo
[7] = AUC in BALB/c mouse at 20 mg/kg, po measured upto 24 hrs by LC-MS/MS analysis; format: ADME, organism-based; set-up: dose 20 mg/kg, time < 24 hr, route oral; conditions: in vivo
Rattus norvegicus [8] = experiment: Antitumor activity against rat RIE cells transfected with KIF5B/RET xenografted in Harlan Foxn1 nude mouse assessed as tumor stasis at 10 mg/kg, po administered bid for 8 days; format: functional, organism-based
[9] = Oral bioavailability in BALB/c mouse at 20 mg/kg measured upto 24 hrs by LC-MS/MS analysis; format: ADME, organism-based; conditions: in vivo
[10] = AUC in BALB/c mouse at 5 mg/kg, iv measured upto 24 hrs by LC-MS/MS analysis; format: ADME, organism-based; set-up: dose 5 mg/kg, time < 24 hr, route intravenous; conditions: in vivo
[11] = Toxicity in Harlan Foxn1 nude mouse xenografted with rat RIE cells transfected with KIF5B/RET assessed as adverse events at 3 to 30 mg/kg, po administered bid for 8 days; format: organism-based; conditions: in vivo, 192 h
[12] = Cmax in BALB/c mouse at 20 mg/kg, po measured upto 24 hrs by LC-MS/MS analysis; format: ADME, organism-based; set-up: dose 20 mg/kg, route oral; conditions: in vivo
[13] = Cmax in BALB/c mouse at 5 mg/kg, iv measured upto 24 hrs by LC-MS/MS analysis; format: ADME, organism-based; set-up: dose 5 mg/kg, route intravenous; conditions: in vivo
Rattus norvegicus [14] = experiment: Antitumor activity against rat RIE cells transfected with KIF5B/RET xenografted in Harlan Foxn1 nude mouse assessed as tumor regression at 30 mg/kg, po administered bid for 8 days; format: functional, organism-based
[15] = Ratio of AUC in BALB/c mouse brain to plasma at 20 mg/kg, po measured upto 24 hrs by LC-MS/MS analysis; format: ADME, organism-based; conditions: brain and plasma
Mus musculus [16] = experiment: In vivo inhibition of KIF5B/RET transfected in rat RIE cells xenografted in Harlan Foxn1 nude mouse assessed as reduction in RET phosphorylation at 30 mg/kg, po administered bid for 8 days and measured on day 8 after 24 hrs of dosing by Western blot analysis; format: functional, organism-based
[17] = Clearance in BALB/c mouse at 5 mg/kg, iv measured upto 24 hrs by LC-MS/MS analysis; format: ADME, organism-based; conditions: in vivo
[18] = Ratio of Cmax in BALB/c mouse brain to plasma at 20 mg/kg, po measured upto 24 hrs by LC-MS/MS analysis; format: ADME, organism-based; conditions: brain and plasma
[19] = target: T1, Voltage-gated inwardly rectifying potassium channel KCNH2; experiment: Displacement of [3H]-dofetilide from human ERG expressed in CHO cells incubated for 90 mins by microbeta scintillation counting method; format: cell-based
LC-2-ad = experiment: Cytotoxicity against human LC2/ad cells assessed as reduction in cell viability incubated for 6 days by CellTiter Glo assay; format: cell-based; conditions: 144 h
Rattus norvegicus [20] = experiment: Antitumor activity against rat RIE cells transfected with KIF5B/RET xenografted in Harlan Foxn1 nude mouse assessed as inhibition of tumor growth at 3 mg/kg, po administered bid for 8 days; format: functional, organism-based
[21] = Half life in BALB/c mouse at 20 mg/kg, po measured upto 24 hrs by LC-MS/MS analysis; format: ADME, organism-based; conditions: in vivo
[22] = Clearance in BALB/c mouse at 2 mg/kg, iv measured upto 24 hrs by LC-MS/MS analysis; format: ADME, organism-based; conditions: in vivo
[23] = Half life in BALB/c mouse at 2 mg/kg, iv measured upto 24 hrs by LC-MS/MS analysis; format: ADME, organism-based; conditions: in vivo
[24] = Cmax in BALB/c mouse at 10 mg/kg, po measured upto 24 hrs by LC-MS/MS analysis; format: ADME, organism-based; set-up: dose 10 mg/kg, route oral; conditions: in vivo
[25] = Oral bioavailability in BALB/c mouse at 10 mg/kg measured upto 24 hrs by LC-MS/MS analysis; format: ADME, organism-based; conditions: in vivo
[26] = AUC in BALB/c mouse at 2 mg/kg, iv measured upto 24 hrs by LC-MS/MS analysis; format: ADME, organism-based; set-up: dose 2 mg/kg, time < 24 hr, route intravenous; conditions: in vivo
[27] = AUC in BALB/c mouse at 10 mg/kg, po measured upto 24 hrs by LC-MS/MS analysis; format: ADME, organism-based; set-up: dose 10 mg/kg, time < 24 hr, route oral; conditions: in vivo
[28] = Cmax in BALB/c mouse at 2 mg/kg, iv measured upto 24 hrs by LC-MS/MS analysis; format: ADME, organism-based; set-up: dose 2 mg/kg, route intravenous; conditions: in vivo
[29] = Half life in BALB/c mouse at 10 mg/kg, po measured upto 24 hrs by LC-MS/MS analysis; format: ADME, organism-based; conditions: in vivo
[30] = Volume of distribution at steady state in BALB/c mouse at 2 mg/kg, iv measured upto 24 hrs by LC-MS/MS analysis; format: ADME, organism-based; conditions: in vivo, read-out: Vdss
[31] = Aqueous solubility of compound at pH 6.8 incubated for 24 hrs by HPLC/UV analysis; format: physicochemical
BaF3 = experiment: Cytotoxicity against mouse BA/F3 cells assessed as reduction in cell viability incubated for 48 hrs by brightglo-luciferase reporter gene assay; format: cell-based; conditions: BaF3, 48 h
Bcr/Abl fusion protein = Bcr/Abl fusion protein (Homo sapiens, UniProt P00519); experiment: Inhibition of BCR/ABL (unknown origin) transfected in mouse Ba/F3 cells assessed as reduction in cell viability incubated for 48 hrs by brightglo-luciferase reporter gene assay; format: cell-based, BaF3
[32] = Toxicity in CD-1 mouse assessed as changes in lung at 10 mg/kg, po qd for 4 weeks by histopathological analysis; format: organism-based; conditions: in vivo, 672 h
[33] = Toxicity in CD-1 mouse assessed as pancreatic vacuolation at 10 mg/kg, po qd for 4 weeks by histopathological analysis; format: organism-based; conditions: in vivo, 672 h
[34] = Toxicity in CD-1 mouse assessed as marginal zone depletion in spleen at 10 mg/kg, po qd for 4 weeks by histopathological analysis; format: organism-based; conditions: in vivo, 672 h
[35] = Toxicity in CD-1 mouse assessed as decrease in germinal centre cellularity in lymph nodes at 10 mg/kg, po qd for 4 weeks by histopathological analysis; format: organism-based; conditions: in vivo, 672 h
[36] = Toxicity in CD-1 mouse assessed as neuronal changes in brain at 10 mg/kg, po qd for 4 weeks by histopathological analysis; format: organism-based; conditions: in vivo, 672 h
[37] = Toxicity in CD-1 mouse assessed as changes in GI neurons at 10 mg/kg, po qd for 4 weeks by histopathological analysis; format: organism-based; conditions: in vivo, 672 h

T1 sequence (Q12809 whole entry): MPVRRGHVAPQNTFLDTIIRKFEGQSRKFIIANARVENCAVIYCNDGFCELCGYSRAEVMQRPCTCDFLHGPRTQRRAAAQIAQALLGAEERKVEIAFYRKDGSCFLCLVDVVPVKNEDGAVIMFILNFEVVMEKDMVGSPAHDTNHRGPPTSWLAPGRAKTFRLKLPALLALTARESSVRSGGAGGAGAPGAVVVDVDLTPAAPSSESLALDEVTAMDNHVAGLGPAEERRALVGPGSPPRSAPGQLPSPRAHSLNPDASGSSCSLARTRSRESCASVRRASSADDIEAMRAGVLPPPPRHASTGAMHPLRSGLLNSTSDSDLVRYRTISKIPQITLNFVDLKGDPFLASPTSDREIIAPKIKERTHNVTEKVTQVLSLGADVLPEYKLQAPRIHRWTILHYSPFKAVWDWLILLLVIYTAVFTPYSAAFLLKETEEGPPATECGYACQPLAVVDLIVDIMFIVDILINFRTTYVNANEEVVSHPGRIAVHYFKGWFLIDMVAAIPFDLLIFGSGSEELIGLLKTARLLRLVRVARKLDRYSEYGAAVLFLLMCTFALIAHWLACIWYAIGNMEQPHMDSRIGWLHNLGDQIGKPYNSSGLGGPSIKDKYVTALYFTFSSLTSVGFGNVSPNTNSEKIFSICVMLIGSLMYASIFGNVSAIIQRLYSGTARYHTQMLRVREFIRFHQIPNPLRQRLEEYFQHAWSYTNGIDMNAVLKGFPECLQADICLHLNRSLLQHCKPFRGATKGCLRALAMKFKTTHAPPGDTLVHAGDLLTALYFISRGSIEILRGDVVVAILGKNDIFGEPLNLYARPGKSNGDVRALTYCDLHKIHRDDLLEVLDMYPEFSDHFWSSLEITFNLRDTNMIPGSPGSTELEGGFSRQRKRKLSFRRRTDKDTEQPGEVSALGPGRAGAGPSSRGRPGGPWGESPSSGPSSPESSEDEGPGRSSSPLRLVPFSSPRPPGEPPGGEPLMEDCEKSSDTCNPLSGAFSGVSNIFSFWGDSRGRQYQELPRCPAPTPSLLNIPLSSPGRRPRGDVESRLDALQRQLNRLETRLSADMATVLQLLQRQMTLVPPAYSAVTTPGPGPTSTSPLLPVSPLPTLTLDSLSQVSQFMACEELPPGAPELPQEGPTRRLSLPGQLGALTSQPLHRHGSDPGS
Sequence of Bcr/Abl fusion protein (P00519 whole entry, the tested form may be a part): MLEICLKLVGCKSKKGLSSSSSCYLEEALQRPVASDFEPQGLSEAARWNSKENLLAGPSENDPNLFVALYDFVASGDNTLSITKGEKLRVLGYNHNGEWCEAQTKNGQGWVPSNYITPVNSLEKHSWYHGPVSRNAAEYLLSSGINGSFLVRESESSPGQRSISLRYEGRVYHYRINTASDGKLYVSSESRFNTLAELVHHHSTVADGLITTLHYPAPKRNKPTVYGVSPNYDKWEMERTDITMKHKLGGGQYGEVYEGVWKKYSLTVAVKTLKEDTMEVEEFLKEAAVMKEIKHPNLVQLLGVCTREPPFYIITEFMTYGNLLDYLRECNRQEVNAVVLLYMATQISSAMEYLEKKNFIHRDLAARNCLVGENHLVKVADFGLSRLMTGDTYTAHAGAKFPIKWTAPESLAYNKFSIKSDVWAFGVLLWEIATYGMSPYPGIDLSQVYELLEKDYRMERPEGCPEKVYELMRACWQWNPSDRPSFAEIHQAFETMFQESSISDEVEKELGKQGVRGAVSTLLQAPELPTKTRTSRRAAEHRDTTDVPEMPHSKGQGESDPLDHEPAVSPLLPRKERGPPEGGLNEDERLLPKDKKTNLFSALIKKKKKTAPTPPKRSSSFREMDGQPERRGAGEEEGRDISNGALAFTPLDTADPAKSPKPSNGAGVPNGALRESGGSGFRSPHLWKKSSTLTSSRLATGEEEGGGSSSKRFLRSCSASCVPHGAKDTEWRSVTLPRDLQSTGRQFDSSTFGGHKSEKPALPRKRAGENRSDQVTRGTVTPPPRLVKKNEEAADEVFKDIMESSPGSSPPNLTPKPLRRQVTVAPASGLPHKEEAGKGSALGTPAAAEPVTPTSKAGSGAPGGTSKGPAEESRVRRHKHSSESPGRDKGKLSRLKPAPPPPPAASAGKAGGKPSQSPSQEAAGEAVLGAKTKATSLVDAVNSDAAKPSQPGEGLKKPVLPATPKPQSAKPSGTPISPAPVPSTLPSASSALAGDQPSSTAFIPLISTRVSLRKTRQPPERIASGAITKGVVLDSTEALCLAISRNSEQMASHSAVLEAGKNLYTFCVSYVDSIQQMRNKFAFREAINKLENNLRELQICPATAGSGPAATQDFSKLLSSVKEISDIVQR
Sequence of Bcr/Abl fusion protein (P11274 whole entry, further chain, the tested form may be a part): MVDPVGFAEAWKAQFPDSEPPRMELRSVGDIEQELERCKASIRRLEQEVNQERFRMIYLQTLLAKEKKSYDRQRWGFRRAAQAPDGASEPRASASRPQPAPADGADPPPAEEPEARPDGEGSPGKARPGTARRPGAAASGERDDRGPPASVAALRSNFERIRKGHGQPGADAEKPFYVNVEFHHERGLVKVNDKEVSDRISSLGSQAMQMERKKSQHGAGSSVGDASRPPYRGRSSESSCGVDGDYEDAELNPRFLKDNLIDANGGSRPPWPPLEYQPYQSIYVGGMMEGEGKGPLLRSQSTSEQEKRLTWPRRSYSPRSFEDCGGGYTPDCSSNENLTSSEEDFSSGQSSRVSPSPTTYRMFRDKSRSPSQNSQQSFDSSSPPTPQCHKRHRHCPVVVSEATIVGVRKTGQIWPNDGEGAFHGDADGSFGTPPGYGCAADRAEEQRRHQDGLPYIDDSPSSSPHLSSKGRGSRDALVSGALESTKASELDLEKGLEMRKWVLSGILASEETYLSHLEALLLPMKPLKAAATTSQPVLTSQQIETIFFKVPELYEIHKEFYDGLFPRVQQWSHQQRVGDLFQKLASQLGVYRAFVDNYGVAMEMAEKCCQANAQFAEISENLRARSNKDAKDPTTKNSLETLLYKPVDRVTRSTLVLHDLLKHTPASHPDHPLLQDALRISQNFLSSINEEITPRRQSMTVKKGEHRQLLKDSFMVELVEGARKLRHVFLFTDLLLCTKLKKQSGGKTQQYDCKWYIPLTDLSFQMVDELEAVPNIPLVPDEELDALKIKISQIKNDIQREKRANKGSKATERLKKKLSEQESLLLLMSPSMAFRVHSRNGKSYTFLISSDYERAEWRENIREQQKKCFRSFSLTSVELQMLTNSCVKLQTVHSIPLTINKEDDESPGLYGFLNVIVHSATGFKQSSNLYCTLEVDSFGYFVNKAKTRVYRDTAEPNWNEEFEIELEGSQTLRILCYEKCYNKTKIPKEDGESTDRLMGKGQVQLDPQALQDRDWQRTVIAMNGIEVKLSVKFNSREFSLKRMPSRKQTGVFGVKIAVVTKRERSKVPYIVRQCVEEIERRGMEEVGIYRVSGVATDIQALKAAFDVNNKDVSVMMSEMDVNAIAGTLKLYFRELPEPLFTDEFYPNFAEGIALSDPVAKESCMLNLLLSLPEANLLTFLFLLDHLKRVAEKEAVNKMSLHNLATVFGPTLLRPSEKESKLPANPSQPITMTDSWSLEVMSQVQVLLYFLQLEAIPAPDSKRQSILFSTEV

## CN1C(C)(C)CC(Nc2nc3c(-c4ccc(C(=O)N5C[C@@H]6C[C@H]5CO6)cc4)cnn3c(N)c2-c2ccccc2)CC1(C)C
Mus musculus [1]
  inhibition: Active
[2]
  Vd: 7.8 L/kg
[3]
  Drug uptake: Active
[4]
  Drug uptake: Active
[5]
  IC50: 2.8 µM
[6]
  half-life: 1.8 h
[7]
  AUC at 24 h: 6.8 µM·h
Rattus norvegicus [8]
  Activity: Active
[9]
  bioavailability: 64%
[10]
  AUC at 24 h: 2.6 µM·h
[11]
  Activity: Non-Toxic
[12]
  Cmax: 880 nM
[13]
  Cmax: 1600 nM
Rattus norvegicus [14]
  Activity: Active
[15]
  Kp at 24 h: 0.15
Mus musculus [16]
  inhibition: inactive
[17]
  clearance: 54 mL/min/kg
[18]
  Kp at 24 h: 0.13
[19]
  IC50: 4.7 µM
LC-2-ad
  IC50: 3.4 µM
Rattus norvegicus [20]
  Activity: Active
[21]
  half-life: 2.5 h

## CN1C(C)(C)CC(Nc2nc3c(-c4ccc(C(=O)N5CCN(S(C)(=O)=O)CC5)cc4)cnn3c(N)c2-c2ccccc2)CC1(C)C
[22]
  clearance: 110 mL/min/kg
[23]
  half-life: 1.6 h
[24]
  Cmax: 100 nM
[25]
  bioavailability: 14%
[26]
  AUC at 24 h: 0.49 µM·h
[27]
  AUC at 24 h: 0.34 µM·h
[28]
  Cmax: 450 nM
LC-2-ad
  IC50: 2.8 µM
[29]
  half-life: 2.2 h
[30]
  Vd: 11 L/kg

## COc1ccc(-c2cnn3c(N)c(-c4ccccc4)c(NC4CCN(C)CC4)nc23)cc1OC
[31]
  solubility at 24 h: 85 µM (≈ 39 µg/mL)
LC-2-ad
  IC50: 5.5 µM

## COc1ccc(-c2cnn3c(N)c(-c4nccs4)c(OC4CCN(C)CC4)nc23)cc1OC
BaF3
  IC50: > 11 µM
Bcr/Abl fusion protein
  IC50: > 10 µM

## COc1ccc(-c2cnn3c(N)c(-c4ccccc4)c(NCCCN(C)C)nc23)cc1OC
[31]
  solubility at 24 h: > 175 µM
LC-2-ad
  IC50: > 10 µM

## COc1ccc(-c2cnn3c(N)c(-c4ccccc4)c(NC4CC(C)(C)N(C)C(C)(C)C4)nc23)cc1OC
[2]
  Vd: 13 L/kg
[31]
  solubility at 24 h: 48 µM (≈ 24.7 µg/mL)
[6]
  half-life: 3.9 h
[10]
  AUC at 24 h: 3.2 µM·h
[13]
  Cmax: 1100 nM
[32]
  Activity: Non-Toxic
[33]
  Activity: Toxic
[34]
  Activity: Toxic
[35]
  Activity: Toxic
[17]
  clearance: 51 mL/min/kg
[36]
  Activity: Non-Toxic
LC-2-ad
  IC50: 1.5 µM
[37]
  Activity: Non-Toxic
